This experiment deals with p90 ribosomal S6 kinase 2 (RSK2), N-terminal kinase domain (mRSK2NTKD) (Mus musculus, UniProt P18654). Kind of experiment: ITC. The class given is binding.

Kd data for one molecule are collected here from article PMC3462495 (2012).

Sequence of p90 ribosomal S6 kinase 2 (RSK2), N-terminal kinase domain (mRSK2NTKD) (P18654 45-346): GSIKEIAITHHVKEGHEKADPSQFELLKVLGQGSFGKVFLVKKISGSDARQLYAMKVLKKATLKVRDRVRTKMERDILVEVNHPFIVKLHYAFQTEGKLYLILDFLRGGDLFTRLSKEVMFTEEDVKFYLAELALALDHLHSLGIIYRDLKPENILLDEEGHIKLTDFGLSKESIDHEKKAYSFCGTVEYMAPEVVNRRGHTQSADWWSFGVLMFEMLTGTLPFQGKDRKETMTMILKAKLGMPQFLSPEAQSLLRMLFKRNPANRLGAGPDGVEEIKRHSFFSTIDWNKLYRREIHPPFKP

For the molecule `Nc1ncnc2c1ncn2[C@@H]1O[C@H](COP(=O)(O)OP(=O)(O)NP(=O)(O)O)[C@@H](O)[C@H]1O` [AMP-PNP], binding was put at a Kd of 50 µM.
